Columns and labels:
[1] = test system: Lewis rats, ventral tegmental area (VTA); test: Ethanol self-administration (two-bottle continuous access) after microinjection into the VTA; format: in vivo
Protocol: Male Lewis rats (Harlan Laboratories, Indianapolis, Ind.) weighing between 275-300 g were individually housed in a temperature controlled colony room (21° C.) maintained on a reversed light/dark cycle 12L:12D cycle (lights off at 10 A.M., lights on at 10 P.M.). All experiments were performed during the dark portion of the cycle. Food and water was provided ad libitum.
Ethanol was administered via a two-bottle continuous access, free-choice paradigm in which one bottle contained 10% ETOH (v/v) and the other bottle contained water. Sucrose was never added to the ethanol solution. The amount of ETOH and water consumed was measured at the same time daily (10 A.M.). […] Animals were weighed daily. Bottles were identical and their positions were counterbalanced and rotated daily. Change in drinking was calculated by subtracting the amount of drinking (mg/kg) on the day following treatment from the amount of drinking (mg/kg) on the day prior to treatment.
Animals were anesthetized and maintained on isoflurane (0.5 l/min) as needed for the duration of surgery. Animals were placed in a stereotaxic frame and were implanted with bilateral 26-gauge stainless steel chronic guide cannulas (Plastincs One, Roanoke, Va.) into the VTA (AP, −5.8; ML, ±0.5; DV, −7.0) based on the atlas of Paxinos and Watson (1997, The rat brain in sterotaxic coordinates, compact, Ed 3. San Diego: Academic). Cannulas were secured to the skull with dental cement. At the end of the surgical procedure, animals were treated with penicillin and topical antibiotics. A stainless steel dummy cannula (Plastics One) was inserted into each guide cannula and remained in place when the guide cannulas were not in use. Animals were allowed a 1 week recovery period before behavioral testing.
Each injection was made using a 1 μl syringe (Hamilton, Reno, Nev.) attached to 20 cm of PE 50 tubing connected to a 33-gauge injection cannula (Plastics One). Microinjections of 0.5 μl volumes were given at a rate of 0.5 μl/min using a syringe pump (kd Scientific, Hollister, Mass.) into each side of the VTA, except for bicuculline injections, where 0.25 μl was injected per side. Injection cannulas extended 2 mm beyond guide cannulas and were left in place for 1 min following microinjections to minimize the backflow of drug solution. In addition to drug microinjections, physiological saline microinjections were made in every rat to measure the effect of the injection manipulation alone on drinking Drug injections were randomized and counterbalanced. Change in drinking due to drug microinjections was calculated by comparing both the previous day's consumption (“baseline”) and to saline injection. At the conclusion of the experiment, animals were anesthetized with pentobarbital and perfused intracardially through the ascending aorta with 0.1 M phosphate buffered saline followed by 10% formalin. Brains were sectioned coronally at 50 μm, mounted and stained with cresyl violet. Only animals with confirmed injection sites within the VTA were included. No behavioral differences were observed between animals with anterior compared with posterior cannula placements.
For behavioral experiments, DPDPE (10mM; Sigma, St. Louis, Mo.), TIPP-ψ (5 μM; NIDA, Bethesda, Md.), Bicuculline (1 mM; Sigma), DAMGO (0.2 mM; Sigma), and CTOP (10 mM; Tocris, Ellisville, Mo.) were prepared in physiological saline for microinjection into the VTA. For electrophysiology, all drugs were applied by bath perfusion. Stock solutions were made and diluted in artificial CSF immediately before application. All chemicals were obtained from Sigma or Tocris except TIPP-ψ, which was acquired from NIDA.
Results are presented as mean±SEM where appropriate. For behavioral data, drinking was analyzed using 24 h time points. Raw drinking data were used for paired Student's t test comparisons probing drug effects on drinking compared with baseline or saline injections, a more conservative comparison than analyzing normalized data. […]

[2] = test system: GABAA IPSCs in VTA neurons; test: Slice electrophysiology, whole-cell patch-clamp of GABAA IPSCs in VTA neurons; format: cell-based, Lewis rats
Lewis rats = test: Cocaine self administration after VTA microinjection; format: in vivo; details: 10 mM into VTA, compared to saline
Protocol: Lewis rats (Charles River, Mass.) weighing 275-350 g at the beginning of behavioral testing are housed and treated as previously described. Prior to cocaine self administration, rats are anesthetized with a ketamine-xylazine-acepromazine mixture and implanted with a chronic jugular catheter using methods previously described (Caine & Koob, 1993). Following surgery, rats receive daily administration of the antibiotic ticarcillin (20 mg/day at 100 mg/ml; GlaxoSmithKline, Research Triangle Park, NC). Catheter patency is tested by infusion of the fast-acting barbiturate Brevital (methohexital sodium; 1 mg/0.1 ml; Lilly, Indianapolis, Ind.). Self-administration training is conducted in operant-conditioning chambers enclosed within sound-attenuating cabinets (MED Associates, St. Albans, Vt.). […] Presses on the active lever result in either a 120 microL infusion of cocaine over a 4-s period via a Razel pump (Razel Scientific Instruments, Fairfax, Vt.) or delivery of a 45-mg food pellet (Bio-Serv, Frenchtown, N.J.). […] Presses on the active lever result in a 20-s time-out, signaled by illumination of the stimulus light and retraction of the active lever. […] Following training, rats are microinjected with either 10 mM DPDPE or saline directly into the VTA prior to cocaine self-administration and active lever presses are recorded.

[3] = 1 μM, VTA neurons from drinking animals

With “(2-D-penicillamine, 5-D-penicillamine)-enkephalin [DPDPE]” the “drinking (EtOH)” value ([1]; 10 mM into VTA, compared with control saline microinjections in the same rats) was “also evident”, the “drinking (EtOH)” value ([1]; 10 mM into VTA, high drinkers) was “only at trend level” and the “drinking (EtOH)” value ([1]; 10 mM into VTA, low drinkers) was “particularly prominent”. For the same substance, the “relation between baseline EtOH consumption and % baseline drinking following administration” value ([1]; 10 mM into VTA, n=15) was “inverse correlation”, the “drinking (EtOH)” value ([1]; 10 mM microinjected into VTA, all animals, compared with the day before treatment) was “decreased drinking” and the “relation between DPDPE induced inhibition of evoked and spontaneous IPSCs and amount of EtOH consumed” value [2] was “inverse correlation”. For the same substance, the “evoked IPSCs” value [2, 3] was “significantly inhibited”, the “spontaneous IPSCs” value [2, 3] was “significantly inhibited” and the “GABA release onto VTA neurons” value ([2]; abstinent animals, 3 and 7 days off bottles) was “maintained its ability to inhibit GABA release”. The “GABAA IPSCs” value ([2]; age-matched, ethanol-naive, control animals) was “no effect”, the saturating dose ([2]; dose-response in the animal groups, in presence of 1 μM CTAP) was 1 µM and the “GABA release in the VTA” value ([2]; low drinkers) was “Decreases GABA Release”. The “cocaine self administration (active lever presses)” value (Lewis rats) was “decrease cocaine self administration”.
